Measurements as given in PubChem BioAssay AID248 (DTP/NCI, 2004).
Several values for one entry are separate records, joined by “and”; a condition that tells them apart may be missing. Identical values can stand only once. Inconclusive results and toxic doses are left out.

System: L1210 leukemia ip in BDF1 mice, survival T/C
Test: NCI In Vivo Anticancer Drug Screen. Data for tumor model L1210 Leukemia (intraperitoneal) in B6D2F1 (BDF1) mice
Settings: endpoint: mean survival time, higher = longer survival
How it was run: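 Antitumor effect is assessed in tumor-bearing animals. Survival in the compound arm is compared with a vehicle-dosed control arm and expressed as their quotient.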

[1] = dose: 6.25 mg/kg/injection, schedule: Q01DX009 (ip), vehicle: saline
[2] = dose: 12.5 mg/kg/injection, schedule: Q01DX009 (ip), vehicle: saline
[3] = dose: 25.0 mg/kg/injection, schedule: Q01DX009 (ip), vehicle: saline
[4] = dose: 100.0 mg/kg/injection, schedule: Q01DX001 (ip), vehicle: saline
[5] = dose: 200.0 mg/kg/injection, schedule: Q01DX001 (ip), vehicle: saline
[6] = dose: 100.0 mg/kg/injection, schedule: Q04DX003 (ip), vehicle: saline
[7] = dose: 200.0 mg/kg/injection, schedule: Q04DX003 (ip), vehicle: saline
[8] = dose: 100.0 mg/kg/injection, schedule: Q04DX002 (ip), vehicle: Klucel (hydroxypropylcellulose) (HPC)
[9] = dose: 200.0 mg/kg/injection, schedule: Q04DX002 (ip), vehicle: Klucel (hydroxypropylcellulose) (HPC)
[10] = dose: 400.0 mg/kg/injection, schedule: Q04DX002 (ip), vehicle: Klucel (hydroxypropylcellulose) (HPC)
[11] = dose: 400.0 mg/kg/injection, schedule: Q01DX001 (ip), vehicle: saline

CC[P+](CC)(CC)c1ccccc1
T/C (dose: 6.0 mg/kg/injection, schedule: Q04DX003 (ip), vehicle: saline): 103 % of control
T/C [1]: 100 % of control
T/C (dose: 12.0 mg/kg/injection, schedule: Q04DX003 (ip), vehicle: saline): 107 % of control
T/C [2]: 100 % of control
T/C (dose: 25.0 mg/kg/injection, schedule: Q01DX009 (ip), vehicle: Klucel (hydroxypropylcellulose) (HPC)): 100 % of control
T/C [3]: 110 % of control
T/C (dose: 25.0 mg/kg/injection, schedule: Q04DX003 (ip), vehicle: saline): 96 % of control and 92 % of control

CC1=C(C)C2(C)C(C)(O)C(C)(O)C12C (centres undefined)
T/C (dose: 75.0 mg/kg/injection, schedule: Q01DX001 (ip), vehicle: acetone): 97 % of control
T/C (dose: 75.0 mg/kg/injection, schedule: Q04DX003 (ip), vehicle: saline with Tween-80): 87 % of control
T/C (dose: 150.0 mg/kg/injection, schedule: Q01DX001 (ip), vehicle: acetone): 102 % of control
T/C (dose: 300.0 mg/kg/injection, schedule: Q01DX001 (ip), vehicle: acetone): 102 % of control

COc1cccc(NC(=O)Nc2cccc(C(F)(F)F)c2)c1
T/C (dose: 100.0 mg/kg/injection, schedule: Q01DX009 (ip), vehicle: Klucel (hydroxypropylcellulose) (HPC)): 96 % of control
T/C (dose: 200.0 mg/kg/injection, schedule: Q01DX009 (ip), vehicle: Klucel (hydroxypropylcellulose) (HPC)): 101 % of control
T/C (dose: 400.0 mg/kg/injection, schedule: Q01DX009 (ip), vehicle: Klucel (hydroxypropylcellulose) (HPC)): 101 % of control

O=C(c1ccccc1)C1C(c2ccccc2)N1C(=O)c1ccc([N+](=O)[O-])cc1 (centres undefined)
T/C (dose: 75.0 mg/kg/injection, schedule: Q01DX001 (ip), vehicle: saline with Tween-80): 96 % of control
T/C (dose: 150.0 mg/kg/injection, schedule: Q01DX001 (ip), vehicle: saline with Tween-80): 86 % of control
T/C (dose: 300.0 mg/kg/injection, schedule: Q01DX001 (ip), vehicle: saline with Tween-80): 91 % of control

CC(NC(=O)C1CC2c3cccc4[nH]cc(c34)CC2N(C)C1)C(C)(C)C (centres undefined)
T/C (dose: 20.0 mg/kg/injection, schedule: Q01DX001 (ip), vehicle: Klucel (hydroxypropylcellulose) (HPC)): 96 % of control
T/C (dose: 40.0 mg/kg/injection, schedule: Q01DX001 (ip), vehicle: Klucel (hydroxypropylcellulose) (HPC)): 101 % of control
T/C (dose: 80.0 mg/kg/injection, schedule: Q01DX001 (ip), vehicle: Klucel (hydroxypropylcellulose) (HPC)): 104 % of control

CCCCN(CCCC)C(C)=O
T/C (dose: 50.0 mg/kg/injection, schedule: Q01DX001 (ip), vehicle: saline): 94 % of control
T/C (dose: 50.0 mg/kg/injection, schedule: Q04DX002 (ip), vehicle: saline with Tween-80): 109 % of control
T/C [4]: 100 % of control
T/C (dose: 100.0 mg/kg/injection, schedule: Q04DX002 (ip), vehicle: saline with Tween-80): 95 % of control
T/C [5]: 100 % of control
T/C (dose: 200.0 mg/kg/injection, schedule: Q04DX002 (ip), vehicle: saline with Tween-80): 98 % of control

O=NN(CCCl)C(=O)Nc1ccc(Cn2ccc(=O)[nH]c2=O)cc1
T/C (dose: 18.0 mg/kg/injection, schedule: Q01DX001 (ip), vehicle: carboxymethylcellulose (CMC)): 164 % of control
T/C (dose: 23.0 mg/kg/injection, schedule: Q01DX001 (ip), vehicle: carboxymethylcellulose (CMC)): 185 % of control
T/C (dose: 26.0 mg/kg/injection, schedule: Q01DX001 (ip), vehicle: carboxymethylcellulose (CMC)): 152 % of control
T/C (dose: 31.0 mg/kg/injection, schedule: Q01DX001 (ip), vehicle: carboxymethylcellulose (CMC)): 189 % of control
T/C (dose: 40.0 mg/kg/injection, schedule: Q01DX001 (ip), vehicle: carboxymethylcellulose (CMC)): 178 % of control
T/C (dose: 46.0 mg/kg/injection, schedule: Q01DX001 (ip), vehicle: carboxymethylcellulose (CMC)): 179 % of control
T/C (dose: 60.0 mg/kg/injection, schedule: Q01DX001 (ip), vehicle: carboxymethylcellulose (CMC)): 200 % of control
T/C (dose: 62.0 mg/kg/injection, schedule: Q01DX001 (ip), vehicle: carboxymethylcellulose (CMC)): 167 % of control
T/C (dose: 90.0 mg/kg/injection, schedule: Q01DX001 (ip), vehicle: carboxymethylcellulose (CMC)): 207 % of control
T/C (dose: 125.0 mg/kg/injection, schedule: Q01DX001 (ip), vehicle: carboxymethylcellulose (CMC)): 107 % of control
T/C (dose: 187.0 mg/kg/injection, schedule: Q01DX001 (ip), vehicle: carboxymethylcellulose (CMC)): 93 % of control

Cc1ccc(S(=O)(=O)Nc2ccccc2-c2nc3c(Cl)ccc(Cl)c3c(=O)o2)cc1
T/C (dose: 100.0 mg/kg/injection, schedule: Q01DX009 (ip), vehicle: other): 105 % of control
T/C [6]: 88 % of control
T/C (dose: 200.0 mg/kg/injection, schedule: Q01DX009 (ip), vehicle: other): 96 % of control
T/C [7]: 93 % of control
T/C (dose: 400.0 mg/kg/injection, schedule: Q01DX009 (ip), vehicle: other): 104 % of control
T/C (dose: 400.0 mg/kg/injection, schedule: Q04DX003 (ip), vehicle: saline): 90 % of control

CCOC(=O)c1nc(N2CCOCC2)c2ccccc2n1
T/C [8]: 104 % of control
T/C [9]: 101 % of control
T/C [10]: 95 % of control

N#CSCC(=O)c1ccc(Cl)cc1
T/C (dose: 50.0 mg/kg/injection, schedule: Q01DX001 (ip), vehicle: carboxymethylcellulose (CMC)): 91 % of control
T/C (dose: 100.0 mg/kg/injection, schedule: Q01DX001 (ip), vehicle: carboxymethylcellulose (CMC)): 100 % of control
T/C (dose: 200.0 mg/kg/injection, schedule: Q01DX001 (ip), vehicle: carboxymethylcellulose (CMC)): 100 % of control

C=C(Br)CNC(=O)OCCCC
T/C (dose: 12.5 mg/kg/injection, schedule: Q01DX009 (ip), vehicle: saline with Tween-80): 94 % of control
T/C (dose: 25.0 mg/kg/injection, schedule: Q01DX009 (ip), vehicle: saline with Tween-80): 100 % of control
T/C (dose: 50.0 mg/kg/injection, schedule: Q01DX009 (ip), vehicle: saline with Tween-80): 98 % of control
T/C [6]: 94 % of control
T/C [7]: 102 % of control

CCOC(=O)Nc1cc(NC(C)CCCN(CC)CC)c2ncc(-c3ccc(Cl)c(Cl)c3)nc2n1 (centres undefined) (tested in a mixture with another compound)
T/C (dose: 6.25 mg/kg/injection, schedule: Q01DX001 (ip), vehicle: saline): 99 % of control
T/C [1]: 91 % of control
T/C (dose: 12.5 mg/kg/injection, schedule: Q01DX001 (ip), vehicle: saline): 101 % of control
T/C [2]: 95 % of control
T/C (dose: 25.0 mg/kg/injection, schedule: Q01DX001 (ip), vehicle: saline): 89 % of control
T/C [3]: 106 % of control
T/C [4]: 103 % of control

C/C(=N/OC(=O)N(C)C)c1ccc([N+](=O)[O-])cc1
T/C [4]: 104 % of control
T/C [5]: 104 % of control
T/C [11]: 104 % of control

CC(=O)c1c(C)[nH]c(C(=O)OC(C)(C)C)c1C
T/C (dose: 100.0 mg/kg/injection, schedule: Q01DX001 (ip), vehicle: Klucel (hydroxypropylcellulose) (HPC)): 95 % of control
T/C (dose: 100.0 mg/kg/injection, schedule: Q04DX003 (ip), vehicle: Klucel (hydroxypropylcellulose) (HPC)): 102 % of control
T/C (dose: 200.0 mg/kg/injection, schedule: Q01DX001 (ip), vehicle: Klucel (hydroxypropylcellulose) (HPC)): 97 % of control
T/C (dose: 200.0 mg/kg/injection, schedule: Q04DX003 (ip), vehicle: Klucel (hydroxypropylcellulose) (HPC)): 96 % of control
T/C (dose: 400.0 mg/kg/injection, schedule: Q01DX001 (ip), vehicle: Klucel (hydroxypropylcellulose) (HPC)): 95 % of control
T/C (dose: 400.0 mg/kg/injection, schedule: Q04DX003 (ip), vehicle: Klucel (hydroxypropylcellulose) (HPC)): 96 % of control

O=C(O)C1C2OC3C(OC(=O)C31)C2Cl (centres undefined)
T/C [8]: 95 % of control
T/C [9]: 92 % of control
T/C [10]: 92 % of control

CCC[CH2][Sn]([Br])([c]1ccccc1)[c]1ccccc1
T/C (dose: 0.39 mg/kg/injection, schedule: Q01DX009 (ip), vehicle: saline with Tween-80): 92 % of control
T/C (dose: 0.78 mg/kg/injection, schedule: Q01DX009 (ip), vehicle: saline with Tween-80): 101 % of control
T/C (dose: 1.56 mg/kg/injection, schedule: Q01DX009 (ip), vehicle: saline with Tween-80): 89 % of control

CCOC(=O)C(Nc1ccc(SC)cc1)c1ccccc1 (centres undefined)
T/C [4]: 110 % of control
T/C [5]: 98 % of control
T/C [11]: 98 % of control
